From patent US20070041904A1, “Peptides whose uptake by cells is controllable” (priority 2003, published 2007)

How the values were obtained:
MDA-MB-231 cells = test: ACPP uptake in 3D Matrigel culture, MDA-MB-231; format: cell-based; conditions: Homo sapiens, 0.1 mM GM6001, read-out: inhibition of uptake of PLGLAG-containing ACPP
Protocol: FIG. 56: MDA-MB-231 cells in 3-D culture make enough MMPs to take up ACPP over 24 hr. The left two columns show results with e9-XPLGLAG-r9-k(Cy5) without or with 0.1 mM GM6001, a general inhibitor of MMPs. GM6001 also reduces invasiveness of the cells, explaining why the cell cluster is smaller. The right two columns show e9-Xplglag-r9-k(Cy5) as a nonhydrolyzable negative control and r9-k(Cy5) as a positive control. […] Note that these ACPPs have no macromolecular carrier, because there is no need to hinder kidney excretion and because the macromolecular carriers seem to hinder diffusion through the Matrigel and into these organoids, which lack active circulation.
3D tissue cultures in matrigel (FIG. 53) may also be used in the practice of this invention. Such 3D cultures are more realistic models than isolated tumor cells, and offer higher-resolution analysis than is possible in live animals. […]
For these studies, tricine gels, fluorescence imaging, and flow cytometry protocols were used to quantify cleavage and uptake of ACPPs into the 3D cultures. Fluorescence imaging allowed detection of total fluorescence of surface and intracellular peptide, whereas flow cytometry measured fluorescence remaining inside cells after clusters have been digested into single cells and stripped of surface binding via trypsinization. […]

[1] = test system: HT1080 xenografts and mouse tissues; test: Biodistribution of radiolabeled ACPPs in mice with HT1080 xenografts; format: in vivo, nude mice
Protocol: FIG. 50: Biodistribution of ^99mTc-labeled albumin-ACPP. Mice xenografted as in FIG. 49 were sacrificed at 6, 24, and 48 hr after injection, organs were dissected, weighed, and radioactivity counted within 2 hrs to obtain % injected dose (% ID)/g tissue as shown in the bar graph (means±s.d., n=4 per time point). The inset table gives the corresponding mean standardized uptake values (SUV) defined as animal weight×(% ID/g tissue).
Serial scans were performed using the Biospace small animal planar scintigraphic imager. The % ID/g (% injected dose retained per gram of tissue) was measured by scintillation counting of tissues harvested post-mortem. The inventors have tested the above ACPPs and three other ^99mTc-labeled ACPPs: (70 KDa-dextran)-e9-XPLGLAG-r9-[DPK-^99mTc(CO)3], (murine serum albumin)-e9-XPLGLAG-r9-[DPK-^99mTc(CO)3], and (PAMAM generation 5 dendrimer)-e9-XPLGLAX-r9-[DPK-^99mTc(CO)3]. […] The tumor margins, however, appear relatively well-defined at earlier time points (see FIG. 48).
Because the ratio of tumor to liver uptake was at variance with the results obtained with fluorescent and magnetic labels and because of the limited literature on the use of DPK, the inventors tested whether the DPK chelator could be responsible for the affinity for normal tissues. Thus, the inventors synthesized and tested (70 KDa dextran)-e9-XPLGLAX-r9-(DOTA-^111In).

[2] = test system: HT-1080 tumors and mouse tissues; test: Standardized uptake values in tissues after peptide injection; format: in vivo, mice; conditions: 1 hr after injection
Protocol: Xenografts in Mice. Nude mice (age, 4-6 weeks) were injected s.c. with ≈10^6 HT-1080 cells. Once the tumors had reached ≈5-7 mm in size (typically 1-2 weeks later), animals were anesthetized with 100 mg/kg ketamine and 5 mg/kg midazolam), weighed, and injected with ≈100 μl of 60 μM peptide through the tail vein. Animals were then imaged at various times by using a Nikon f/1.2 camera lens in front of a cooled charge-coupled device camera (SenSys, Photometrics, Tucson, Ariz.). For longer lasting imaging studies, animals were allowed to wake up after 2 h of anesthesia and were reanesthetized at ≈4 and 6 hr for further data collection. Plasma half-lives were determined by the decrease in fluorescence intensity of ≈5-μl blood samples withdrawn periodically into heparinized capillaries. After imaging was ended, animals were killed with halothane, and organs of interest were harvested and weighed. For frozen sectioning, tissues were added to OCT cryopreservative and frozen on dry ice and hexane. […] Cy5 fluorescence was imaged as described above. […] Two sets of standards (liver and kidney) were used to calibrate fluorescence intensity in terms of peptide concentration. From this calibration, the quantity of peptide in 30 mg of tissue for each organ was calculated. SUVs were calculated as the molality of peptide in the tissue divided by the total injected dose as mol/kg of body weight. […]

MMP-9 = test: Fluorescence change upon enzymatic cleavage of self-quenching / FRET ACPPs; format: biochemical
Source text: (§1) Thus, such molecules may be administered in vivo, and are cleaved in vivo.
ACPPs with self-quenching fluorophores [Cy5-X-e6-XPLGLAG-r9-Xk(Cy5)] or FRET pairs [Cy7-X-e6-XPLGLAG-r9-Xk(Cy5)] were synthesized. […] The inventors have found these two substrates to be poorly soluble in physiological media, even though the inventors decreased the number of glutamate residues from nine to six so that the molecules would carry more net charge.

[3] = test system: tumor, kidney and liver of xenografted mice; test: Cyclic ACPP tested in xenografted mice; format: in vivo
Protocol: as §1
To generate cyclic peptides, the inventors synthesized cyclic[succinoyl-PLGLAG-c(11 KDa-mPEG)-e9-XPLGLAG-r9-K]-k(Cy5), which contains two cleavage sites. This cyclic ACCP was tested in xenografted mice. […] Thus, the cyclic substrate requiring two cleavages should favor the liver to an even greater extent. One of skill in the art would recognize that once peptide sequences (preferably two distinct ones) were obtained that individually are preferentially cleaved in the tumor over the liver, then the two-cut ACPPs would become advantageous for the practice of this invention.

Enterokinase = test: Peptide cleavage by enterokinase monitored by HPLC; format: biochemical; conditions: 0.38 mM peptide stock, 1 U/μl enterokinase
Protocol: 10 μl 0.38 mM peptide dissolved in water stock solution was added to 10 μl 1 U/μl Enterokinase (Invitrogen, EKmax) and the cleavage progress was monitored by injecting 5 μl of the reaction mixture on HPLC monitored at 440 nm. The peptide was designed to be a substrate for enterokinase, with cleavage by enterokinase expected between the K and A residues. A High Performance Liquid Chromatography (HPLC) chromatogram of the peptide EDDDDKA-aca-R9-aca-C(Fl)-CONH2 (SEQ ID NO: 3) (before cleavage of linker portion between K and A) is illustrated in FIG. 6A. […] FIG. 6B illustrates the HPLC chromatogram of the peptide of FIG. 6A after cleavage by enterokinase. The new peak was collected and determined on a mass spectrometer. The determined mass corresponded (as expected) to cleavage between K and A in the sequence of EDDDDKA-aca-R9-aca-C(Fl)-CONH2. (SEQ ID NO: 3)
ACPP Cleavage by Enterokinase: 10 μl of a 0.38 mM peptide stock solution dissolved in water was mixed with 10 μl 1 U/μl enterokinase (Invitrogen) and incubated at 37° C. Enzymatic cleavage was monitored by injecting 5 μl of the reaction mixture on HPLC and observing either UVvis absorbance at 440 nm for fluorescein labeled or 650 nm for Cy5 labeled peptide. […] The new peaks were collected and their identities were determined by mass spectroscopy.

CNC(=O)[C@H](Cc1c[nH]c2ccccc12)NC(=O)[C@@H](CC(=O)NO)CC(C)C [GM6001]
inhibition at 100 µM (MDA-MB-231 cells): ~50%

(murine serum albumin)-e9-XPLGLAG-r9-[DPK-^99mTc(CO)3]
tumor uptake ([1]; HT1080 xenograft): 1-3 % ID/g
liver uptake ([1]; mouse, in vivo): 12-18 % ID/g

[11-kDa PEG]-X-e9-XPLG*LAG-r9-Xk(Cy5)
tumor SUV ratio cleavable vs control [2]: 3.1

Cy7-X-e6-XPLGLAG-r9-Xk(Cy5)
increase in ratio of 650 to 770 nm emissions upon cleavage (MMP-9; FRET substrate): 6.6 -fold

cyclic[succinoyl-PLGLAG-c(11 KDa-mPEG)-e9-XPLGLAG-r9-K]-k(Cy5)
decrease of tumor signal vs linear peptide ([3]; compared to linear peptide with single cleavage site): 2 factor
increase of liver signal vs linear peptide ([3]; mouse, in vivo): ~10 factor

EDDDDKA-aca-R9-aca-C(Fl)-CONH2 (EDDDDKAXRRRRRRRRRXX; aminocaproic linkers, fluorescein, C-terminal amide; Description of Artificial Sequence:peptide designed to be substrate for enterokinase; Xaa = aminohexanoic acid (aminocaproic acid); Xaa = cysteinamide modified by fluorescein (Fl))
time to almost complete cleavage by enterokinase (Enterokinase): 15 min

Cy5-X-e6-XPLGLAG-r9-Xk(Cy5)
increase of fluorescence intensity upon cleavage by MMP-9 (MMP-9): 3.9 fold
